Results: ChEMBL document CHEMBL1141415, “Design, synthesis, and crystal structure of hydroxyethyl secondary amine-based peptidomimetic inhibitors of human beta-secretase” (J Med Chem, 2007)

Tests used:
Beta-secretase 1 = Beta-secretase 1 (Homo sapiens, UniProt P56817); assay: Inhibition of human BACE1 by MBPC125Swe assay; type: cell-based
Beta-secretase (BACE) [1] = biological target: T1, Beta-secretase (BACE) (Homo sapiens, UniProt Q9Y5Z0+P56817); assay: Inhibition of beta amyloid production in human HEK293 cells; type: functional, cell-based
Beta-secretase (BACE) [2] = biological target: T1, Beta-secretase (BACE); assay: Ratio of EC50 for beta amyloid to IC50 for BACE1; type: functional

Beta-secretase 1, sequence (P56817 whole entry): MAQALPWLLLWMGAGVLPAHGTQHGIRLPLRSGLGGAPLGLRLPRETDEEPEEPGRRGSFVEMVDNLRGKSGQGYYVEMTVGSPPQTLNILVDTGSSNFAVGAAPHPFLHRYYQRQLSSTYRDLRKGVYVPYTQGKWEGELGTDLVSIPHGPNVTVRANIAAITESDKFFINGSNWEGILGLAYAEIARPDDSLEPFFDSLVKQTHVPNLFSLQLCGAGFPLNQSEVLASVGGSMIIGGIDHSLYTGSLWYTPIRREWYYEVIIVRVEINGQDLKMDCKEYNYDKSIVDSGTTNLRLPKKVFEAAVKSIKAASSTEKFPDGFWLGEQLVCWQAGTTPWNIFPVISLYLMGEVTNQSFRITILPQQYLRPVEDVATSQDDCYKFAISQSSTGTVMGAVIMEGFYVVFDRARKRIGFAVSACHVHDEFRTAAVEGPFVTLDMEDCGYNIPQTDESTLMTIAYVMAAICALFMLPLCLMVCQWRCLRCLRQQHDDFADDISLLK
T1 sequence (P56817 whole entry, looked up): as the sequence (P56817 whole entry) above
T1 sequence (Q9Y5Z0 whole entry, looked up): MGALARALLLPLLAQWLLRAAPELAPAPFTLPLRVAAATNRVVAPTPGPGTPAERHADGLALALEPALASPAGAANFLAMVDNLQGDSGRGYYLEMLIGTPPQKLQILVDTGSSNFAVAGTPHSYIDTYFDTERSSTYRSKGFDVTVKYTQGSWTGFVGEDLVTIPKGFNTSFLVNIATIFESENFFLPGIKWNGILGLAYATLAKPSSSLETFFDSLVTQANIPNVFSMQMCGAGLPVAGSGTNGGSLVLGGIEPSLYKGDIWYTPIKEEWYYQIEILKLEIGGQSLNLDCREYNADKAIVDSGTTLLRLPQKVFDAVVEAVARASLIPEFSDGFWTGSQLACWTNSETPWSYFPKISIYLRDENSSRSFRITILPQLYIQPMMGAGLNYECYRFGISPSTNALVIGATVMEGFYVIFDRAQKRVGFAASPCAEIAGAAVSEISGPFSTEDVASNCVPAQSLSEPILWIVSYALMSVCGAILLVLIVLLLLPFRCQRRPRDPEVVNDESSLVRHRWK

Row | IC50 (Beta-secretase 1) | EC50 (Beta-secretase (BACE) [1]) | Ratio (Beta-secretase (BACE) [2]) | SMILES
1 | 130 nM | 40 nM | 0.3 | CCCN(CCC)C(=O)c1cc(C)cc(C(=O)N[C@@H](Cc2cc(F)cc(F)c2)[C@H](O)CNCc2ccccc2)c1
2 | – | 230 nM | – | CCCN(CCC)C(=O)c1cc(C)cc(C(=O)N[C@@H](Cc2cc(F)cc(F)c2)[C@H](O)CNC(C)(C)C(=O)NCC(C)C)c1
3 | 130 nM | 230 nM | 1 | CCCN(CCC)C(=O)c1cccc(C(=O)N[C@@H](Cc2cc(F)cc(F)c2)[C@H](O)CN[C@@H](C)C(=O)NCC(C)C)c1
4 | 500 nM | 600 nM | – | CCCN(CCC)C(=O)c1cccc(C(=O)N[C@@H](Cc2cc(F)cc(F)c2)[C@H](O)CN[C@H](C)C(=O)NCC(C)C)c1
5 | 70 nM | 80 nM | – | CCCN(CCC)C(=O)c1cc(C)cc(C(=O)N[C@@H](Cc2cc(F)cc(F)c2)[C@H](O)CN[C@@H](C)C(=O)NCC(C)C)c1
